# Source: patent publication US11834434B2, “Substituted 2-heteroaryloxypyridines and salts thereof and their use as herbicidal agents” (Bayer Aktiengesellschaft, priority 2018, dated 2023)
# Legend:
# Assay type in all cases: in vivo
# [1] = tested on: Echinochloa crus-galli (ECHCG); assay: Post-emergence herbicidal action against Echinochloa crus-galli; conditions: 1280 g/ha; rated visually after about 3 weeks vs untreated controls; 100% = plants have died, 0% = like control plants
# Procedure: (§1) Seeds of mono- and dicotyledonous weed plants were placed in plastic pots in sandy loam soil (doubly sown with in each case one species of mono- or dicotyledonous weed plants per pot), covered with soil and cultivated in a greenhouse under controlled growth conditions. 2 to 3 weeks after sowing, the test plants were treated at the one-leaf stage. The compounds of the invention, formulated in the form of wettable powders (WP) or as emulsion concentrates (EC), were applied onto the green parts of the plants as aqueous suspension or emulsion with addition of 0.5% additive at a water application rate of 600 liters per hectare (converted). After the test plants had been kept in the greenhouse under optimum growth conditions for about 3 weeks, the activity of the preparations was rated visually in comparison to untreated controls. For example, 100% activity=the plants have died, 0% activity=like control plants. Tables B1 to B8 below show the effects of selected compounds of the general formula (I) according to Table 1 on various harmful plants and an application rate corresponding to 1280 g/ha, which were obtained by the experimental procedure mentioned above.
# Poa annua (POAAN) [2] = assay: Post-emergence herbicidal action against Poa annua; conditions: 1280 g/ha; rated visually after about 3 weeks vs untreated controls; 100% = plants have died, 0% = like control plants
# Procedure: as §1
# [3] = tested on: Abutilon theophrasti (ABUTH); assay: Post-emergence herbicidal action against Abutilon theophrasti; conditions: 1280 g/ha; rated visually after about 3 weeks vs untreated controls; 100% = plants have died, 0% = like control plants
# Procedure: as §1
# [4] = tested on: Echinochloa crus-galli (ECHCG); assay: Pre-emergence herbicidal action against Echinochloa crus-galli; conditions: 1280 g/ha; scored visually after about 3 weeks vs untreated controls; 100% = plants have died, 0% = like control plants
# Source text: (§2) Seeds of mono- and dicotyledonous weed plants were placed in plastic pots in sandy loam soil (doubly sown with in each case one species of mono- or dicotyledonous weed plants per pot) and covered with soil. The compounds of the invention, formulated in the form of wettable powders (WP) or as emulsion concentrates (EC), were then applied onto the surface of the covering soil as aqueous suspension or emulsion with addition of 0.5% additive at a water application rate of 600 liters per hectare (converted). After the treatment, the pots were placed in a greenhouse and kept under good growth conditions for the test plants. After about 3 weeks, the effect of the preparations was scored visually in comparison with untreated controls as percentages. For example, 100% activity=the plants have died, 0% activity=like control plants. Tables C1 to C8 below show the effects of selected compounds of the general formula (I) according to Table 1 on various harmful plants and an application rate corresponding to 1280 g/ha, which were obtained by the experimental procedure mentioned above.
# Lolium rigidum (LOLRI) = assay: Pre-emergence herbicidal action against Lolium rigidum; conditions: 1280 g/ha; scored visually after about 3 weeks vs untreated controls; 100% = plants have died, 0% = like control plants
# Source text: as §2
# Poa annua (POAAN) [5] = assay: Pre-emergence herbicidal action against Poa annua; conditions: 1280 g/ha; scored visually after about 3 weeks vs untreated controls; 100% = plants have died, 0% = like control plants
# Source text: as §2
# Setaria viridis (SETVI) = assay: Pre-emergence herbicidal action against Setaria viridis; conditions: 1280 g/ha; scored visually after about 3 weeks vs untreated controls; 100% = plants have died, 0% = like control plants
# Source text: as §2
# [6] = tested on: Abutilon theophrasti (ABUTH); assay: Pre-emergence herbicidal action against Abutilon theophrasti; conditions: 1280 g/ha; scored visually after about 3 weeks vs untreated controls; 100% = plants have died, 0% = like control plants
# Source text: as §2
# [7] = tested on: Amaranthus retroflexus (AMARE); assay: Pre-emergence herbicidal action against Amaranthus retroflexus; conditions: 1280 g/ha; scored visually after about 3 weeks vs untreated controls; 100% = plants have died, 0% = like control plants
# Source text: as §2
# [8] = tested on: Matricaria inodora (MATIN); assay: Pre-emergence herbicidal action against Matricaria inodora; conditions: 1280 g/ha; scored visually after about 3 weeks vs untreated controls; 100% = plants have died, 0% = like control plants
# Source text: as §2
# Stellaria media (STEME) [9] = assay: Pre-emergence herbicidal action against Stellaria media; conditions: 1280 g/ha; scored visually after about 3 weeks vs untreated controls; 100% = plants have died, 0% = like control plants
# Source text: as §2
# [10] = tested on: Amaranthus retroflexus (AMARE); assay: Post-emergence herbicidal action against Amaranthus retroflexus; conditions: 1280 g/ha; rated visually after about 3 weeks vs untreated controls; 100% = plants have died, 0% = like control plants
# Procedure: as §1
# Stellaria media (STEME) [11] = assay: Post-emergence herbicidal action against Stellaria media; conditions: 1280 g/ha; rated visually after about 3 weeks vs untreated controls; 100% = plants have died, 0% = like control plants
# Procedure: as §1
# [12] = tested on: Matricaria inodora (MATIN); assay: Post-emergence herbicidal action against Matricaria inodora; conditions: 1280 g/ha; rated visually after about 3 weeks vs untreated controls; 100% = plants have died, 0% = like control plants; column head prints STEME
# Procedure: as §1
Compound,Post-emergence action against Echinochloa crus-galli (ECHCG) [1],Post-emergence action against Poa annua (POAAN) (Poa annua (POAAN) [2]),Post-emergence action against Abutilon theophrasti (ABUTH) [3],Pre-emergence action against Echinochloa crus-galli (ECHCG) [4],Pre-emergence action against Lolium rigidum (LOLRI) (Lolium rigidum (LOLRI)),Pre-emergence action against Poa annua (POAAN) (Poa annua (POAAN) [5]),Pre-emergence action against Setaria viridis (SETVI) (Setaria viridis (SETVI)),Pre-emergence action against Abutilon theophrasti (ABUTH) [6],Pre-emergence action against Amaranthus retroflexus (AMARE) [7],Pre-emergence action against Matricaria inodora (MATIN) [8],Pre-emergence action against Stellaria media (STEME) (Stellaria media (STEME) [9]),Post-emergence action against Amaranthus retroflexus (AMARE) [10],Post-emergence action against Stellaria media (STEME) (Stellaria media (STEME) [11]),Post-emergence action against Matricaria inodora (MATIN) [12]
Cc1ccnc(Oc2ncccn2)c1Sc1ccc(F)cc1F [Example I-210],90%,100%,90%,100%,100%,100%,100%,100%,100%,100%,100%,–,–,–
Fc1cnc(Oc2ncccc2Sc2cccc(Cl)c2)nc1 [Example I-158],100%,–,–,–,–,90%,90%,–,100%,–,100%,100%,100%,–
"Cc1ccnc(Oc2ncccn2)c1Sc1ccccc1 [Example I-216, 2-[(4-Methyl-3-phenylsulfanyl-2-pyridyl)oxy]pyrimidine]",100%,100%,100%,100%,90%,100%,100%,100%,100%,100%,100%,100%,100%,–
COc1cccc(Cc2c(C)cc(C)nc2Oc2ncc(F)cn2)c1 [Example I-484],100%,100%,100%,100%,100%,100%,100%,100%,100%,100%,100%,100%,100%,100%
Cc1ccnc(Oc2ncccn2)c1Sc1cccc(Cl)c1 [Example I-212],100%,100%,–,100%,100%,100%,100%,100%,100%,100%,100%,–,100%,–
Cc1ccc(Oc2ccc(Cl)cc2)c(Oc2ncc(F)cn2)n1 [Example I-515],100%,100%,–,100%,90%,100%,100%,100%,100%,100%,100%,100%,100%,–
Cc1cc(C)c(Cc2ccc(Cl)cc2)c(Oc2ncc(F)cn2)n1 [Example I-482],–,100%,90%,100%,100%,100%,100%,100%,100%,100%,100%,100%,100%,–
Cc1ccc(Cc2ccc(F)cc2F)c(Oc2ncccn2)n1 [Example I-444],–,100%,–,–,90%,100%,100%,–,100%,100%,100%,–,90%,90%
Cc1ccc(Oc2ccc(Cl)cc2)c(Oc2ncc(Cl)cn2)n1 [Example I-504],90%,100%,–,–,90%,90%,100%,90%,100%,90%,100%,100%,100%,–
Cc1ccc(Oc2ccccc2)c(Oc2ncc(Cl)cn2)n1 [Example I-500],90%,100%,100%,100%,100%,100%,100%,100%,100%,90%,100%,–,100%,–
